Results taken from patent US11357786B2, “Synthetic disugar hydrocarbons as natural analogs to control microbial behaviors” (Syracuse University, priority 2014, dated 2022).

Experiments:
Assay type in all cases: cell-based, Pseudomonas aeruginosa
[1] = test system: nonswarming P. aeruginosa mutant rhlA; assay: Swarming motility of nonswarming rhlA mutant on soft agar (reactivation / agonist assay); details: for Swarming motility of rhlA mutant: 85 μM in soft agar (0.5%); for Reactivation of swarming motility of rhlA mutant: concentration not given; for Concentration of activity reversal for swarming promotion of rhlA mutant (transition concentration): soft agar
Description: Using nonswarming mutant to screen for swarming agonists and wild type P. aeruginosa for swarming antagonists. The transposon mutant, rhlA (genotype, rhlA-E08:ISphoA/hah)39 of P. aeruginosa (PAO1), that impairs the gene that is responsible for synthesizing rhamnolipids is completely incapable of a swarming motility. […] Based on this inference, a rhlA mutant was used in a swarming experiment to screen the saccharide-hydrocarbons for agonists that can reactivate the swarming motility of rhlA.
(§1) Swarm agar plates were based on M8 medium supplemented with 0.2% glucose, 0.5% casamino acid, 1 mM MgSO4 and […]. 17 For each set of experiment all the swarm plates were poured from same batch of agar and allowed to dry for 1 h before inoculation of bacteria. Bacterial culture (3 μl) (wild type PAO1 or rhlA mutant) with OD600 between […] was inoculated on the solidified agar plates. Swarm agar plates were incubated at 37° C. for 12 h and then incubated for additional 12 h at room temp. Chronological images of swarm plates were taken using a camera. To measure swarming area, sizes of the petridish in all swarming images were adjusted to a pre-assigned diameter and images were printed on copying paper (Xerox-business 4200). Weight of a 1 cm^2 copy paper square was roughly ˜8.0 mg. swarming images on the copy paper were cut and weighed, the swarm area was calculated by dividing the weight of image by weight of 1 cm^2 square (8 mg).
(§2) Swarm agar plates were made using M8 medium supplemented with 0.2% glucose, 0.5% casamino acid, 1 mM MgSO4 and solidified with 0.5% Bacto agar. 24 Bacterial culture with OD600 between 0.4 to 0.6 was inoculated as 3 μl aliquots. Swarm agar plates were incubated at 37° C. for 12 h and then incubated for additional 12 h at rt. For each set of experiment all the swarm plates were poured from same batch of agar and allowed to dry for 1 h before inoculation of bacteria.

wild type PAO1 = assay: Swarming motility of wild type PAO1 on soft agar (antagonist assay); details: for Swarming motility of wild type PAO1: 85 μM in soft agar; for Concentration of activity reversal for swarming inhibition of PAO1 (transition concentration): soft agar; for Effect on PAO1 swarming: concentration not given
Procedure: In contrast, the wild type P. aeruginosa produces the rhamnolipids and is capable of swarming on soft agar gel (˜0.5% agar). […] We note that saccharide hydrocarbons may also promote the swarming motility, but such promotions are less unambiguous than the inhibition for wild type PAO1. Such promotion will be unambiguous in the agonist assay using the nonswarming mutant rhlA.
as §1, §2

PAO1 biofilm = assay: Crystal violet based static biofilm inhibition assay, DSHs in LB media (Examples 2 and 4); details: for Inhibition of PAO1 biofilm formation (surface attached): 160 μM, 24 h, LB media, 160 µM; for Anti-biofilm activity (biofilm inhibition): concentration not given
Procedure: The ability of DSHs was tested to inhibit Pseudomonas aeruginosa adhesion, biofilm and to disperse pre-formed biofilm. To quantify the amount of PAO1/EGFP attached on the surface of micro titer plates with or without the synthesized DSHs, fluorescence emitted by green fluorescent proteins (GFP) was quantified (see supporting info for details). Crystal violet (CV) based static biofilm assay (see supporting info) was used to screen the anti-biofilm potencies of all synthesized agents. Both surface attached (SA) (FIG. 17) and total (SA+air-liquid interface) biofilm of P. aeruginosa was quantified. […] CV assays were also used to quantify the amount of P. aeruginosa biofilm remaining after dispersion experiments (FIG. 19). Initially, all agents were screen for anti-biofilm activities (both inhibition and dispersion) at 160 μM. […] All reported biofilm inhibition results are an average of 4 identical wells.
The effect that DSHs have on the adhesion of PAO1-EGFP on polystyrene surface (microtiter plate) was also examined. PAO1-EGFP is a P. aeruginosa strain that constitutively expresses green fluorescent protein. In the adhesion assays, PAO1-EGFP was grown in microtiter plate for 24-hours in LB-media with (160 μM) or without DSHs. After 24-hours, the fluorescent signal obtained from surface adhered PAO1-EGFP was measured. Percent reduction in fluorescence was calculated by comparing fluorescent signal from PAO1-EGFP grown in LB-media with the signal from wells that had DSHs (FIG. 29A). To study the effect of DSHs on biofilm formation, Pseudomonas aeruginosa (PAO1) was grown in LB-media with (160 μM) or without DSHs at 37° C. under static conditions within wells of microtiter plates. After 24 hours, the surface attached biofilms adhering to the bottom of the wells were stained with crystal-violet dye and the biofilm was quantified by measuring absorbance at 600 nm (OD600). […] Similar to inhibition, the surface attached biofilm after dispersion with DSHs was quantified with crystal-violet staining and absorbance measurement at 600 nm, except that for dispersion, biofilm was first grown for 1 day in just LB-media without any DSHs after which DSHs were added and plates were incubated for additional 24 hours followed by quantification (FIG. 29B).
Crystal violet (CV) based-biofilm inhibition assay. Inhibitory effect of all synthesized disaccharide hydrocarbons on biofilm formation of Pseudomonas aeruginosa (wild type PAO1) was determined by static biofilm inhibition assay using crystal violet staining. Overnight culture of PAO1 were sub cultured in LB media to OD600 of 0.01 and further the OD600 was allowed to reach ˜0.1. The bacterial sub-culture (200 μL) was then added into the wells of a microtiter plate. Predetermined concentrations of DSHs were added to respective wells containing sub culture by pipetting out fixed volume of sterile aqueous stock solutions (except DβL (7), SPOT, (15) and 2-ODαC (17), which were introduced as stocks prepared in H2O […] and EtOH (90:10) solutions). The microtiter plates were then wrapped in GLAD Press n′ Seal® (saran wrap) and further incubated under stationary conditions for 24 h at 37° C. After 24 h incubation, the culture media was discarded by pipetting carefully (without disrupting biofilm), the plate was then washed once with sterile water (200 μL) and allowed to dry at 37° C. for ˜30 mins. Microtiter plates were then stained with 0.1% aqueous solution of crystal violet (CV) (200 μL) at rt for ˜30 mins. Following this, the CV stain was removed and plate was again washed with sterile water (200 μL). Resultant CV stain in the well was then solubilized by adding 100 μL of 30% AcOH solution (in water) and mixing gently by pipetting.

| Compound | Swarming motility of rhlA mutant ([1]; 24 h) | Swarming motility of wild type PAO1 (wild type PAO1; 24 h) | Anti-biofilm activity (biofilm inhibition) (PAO1 biofilm) | Effect on PAO1 swarming (wild type PAO1) | also measured |
| --- | --- | --- | --- | --- | --- |
| CCCCCCCCCCCCO[C@@H]1O[C@H](CO)[C@@H](O)[C@H](O)[C@H]1O [DβG (8), dodecyl-β-glucoside] | no apparent effect on rhlA | inhibited the swarming motility of wild type PAO1 | weak anti-biofilm activity | – | Reactivation of swarming motility of rhlA mutant [1]: activated the swarming motility of rhlA mutant; Concentration of activity reversal for swarming promotion of rhlA mutant (transition concentration) [1]: ~35 to 50 µM; Concentration of activity reversal for swarming promotion of rhlA mutant (transition concentration) ([1]; listed as 8): 35 µM; Concentration of activity reversal for swarming inhibition of PAO1 (transition concentration) (wild type PAO1): ~50 to 60 µM; Concentration of activity reversal for swarming inhibition of PAO1 (transition concentration) (wild type PAO1; listed as 8): 35 to 50 µM; Inhibition of PAO1 biofilm formation (surface attached) (PAO1 biofilm; listed as 8: DβG): poor anti-biofilm activity; Anti-biofilm activity (biofilm inhibition) (PAO1 biofilm; listed as DOG (8)): did not show significant inhibition of PAO1 biofilm |
| CCCCCCCCCCCO[C@@H]1O[C@H](CO)[C@@H](O[C@@H]2O[C@H](CO)[C@@H](O)[C@H](O)[C@H]2O)[C@H](O)[C@H]1O [UβC (3), undecyl-β-cellobioside] | strong reactivation of the swarming motility in rhlA mutant | causing significant amount of tendril formation | did not show significant inhibition of PAO1 biofilm | induced tendril formation in the swarming pattern of PAO1 | Reactivation of swarming motility of rhlA mutant [1]: activated the swarming motility of rhlA mutant |
| CCCCCCCCCCC(CO[C@@H]1O[C@H](CO)[C@@H](O[C@H]2O[C@H](CO)[C@@H](O)[C@H](O)[C@H]2O)[C@H](O)[C@H]1O)Cc1cc(C)cc(C)c1 (stereo partly drawn) [3,5-DMBDβM, 3,5-dimethyl benzyl dodecyl β-maltoside] | long, straight and well-defined tendrils | – | – | – | – |
| CCCCCCCCCCCO[C@@H]1O[C@H](CO)[C@@H](O[C@H]2O[C@H](CO)[C@@H](O)[C@H](O)[C@H]2O)[C@H](O)[C@H]1O [UβM, undecyl β-maltoside] | swarming motility with without well-defined tendrils | – | – | – | – |
| CCCCCCCCCCC(CO[C@@H]1O[C@H](CO)[C@@H](O[C@H]2O[C@H](CO)[C@@H](O)[C@H](O)[C@H]2O)[C@H](O)[C@H]1O)Cc1ccc(C)cc1 (stereo partly drawn) [4-MBDβM, 4-methyl benzyl dodecyl β-maltoside] | long, straight and well-defined tendrils | – | – | – | – |
| CCCCCCCCCCCCO[C@H]1O[C@H](CO)[C@@H](O[C@@H]2O[C@H](CO)[C@@H](O)[C@H](O)[C@H]2O)[C@H](O)[C@H]1O [DαC (6), dodecyl-α-cellobioside] | no apparent reactivation of rhlA swarming | causing significant amount of tendril formation | – | induced tendril formation in the swarming pattern of PAO1 | – |
| CCCCCCCCC(CO[C@@H]1O[C@H](CO)[C@@H](O[C@H]2O[C@H](CO)[C@@H](O)[C@H](O)[C@H]2O)[C@H](O)[C@H]1O)Cc1ccc(C(C)(C)C)cc1 (stereo partly drawn) [4-tBuBDeβM, 4-tertiary butyl benzyl decyl β-maltoside] | swarming motility with without well-defined tendrils | – | – | – | – |
| C=CCCCCCCCCCO[C@@H]1O[C@H](CO)[C@@H](O[C@@H]2O[C@H](CO)[C@@H](O)[C@H](O)[C@H]2O)[C@H](O)[C@H]1O [UDβC (10), undecylenyl-β-cellobioside] | no significant effect on the swarming motility | no significant effect on the swarming motility | did not show anti-biofilm activities | no apparent effect on PAO1 swarming | Inhibition of PAO1 biofilm formation (surface attached) (PAO1 biofilm; listed as 10: UDβC): lesser potency than DSH with completely saturated aliphatic chain |
| CCCCCCCCCCCCO[C@@H]1O[C@H](CO)[C@@H](O[C@H]2O[C@H](CO)[C@@H](O)[C@H](O)[C@H]2O)[C@H](O)[C@H]1O [DβM (1), dodecyl-β-maltoside] | strong reactivation of the swarming motility in rhlA mutant | causing significant amount of tendril formation | – | induced tendril formation in the swarming pattern of PAO1 | Swarming motility of rhlA mutant ([1]; 24 h, listed as DβM): long, straight and well-defined tendrils; Swarming reactivation of rhlA mutant ([1]; 110 μM in soft agar, 24 h): fully restored the swarming of rhlA; Swarming of wild type PAO1 (wild type PAO1; 110 μM in soft agar, 24 h): did not significantly affect the swarm pattern; Inhibition of PAO1 biofilm formation (surface attached) (PAO1 biofilm; listed as 1: DβM): 50% |
| CCCCCCCCCCCCCO[C@@H]1O[C@H](CO)[C@@H](O[C@@H]2O[C@H](CO)[C@@H](O)[C@H](O)[C@H]2O)[C@H](O)[C@H]1O [TβC (5), tridecyl-β-cellobioside] | no apparent reactivation of rhlA swarming | causing significant amount of tendril formation | did not show significant inhibition of PAO1 biofilm | induced tendril formation in the swarming pattern of PAO1 | Concentration of first inhibition of rhlA swarming [1]: around 50 μM; Concentration of another activation of rhlA swarming ([1]; after first inhibition): about 160 μM; Reactivation of swarming motility of rhlA mutant [1]: activated the swarming motility of rhlA mutant; Concentration of activity reversal for swarming promotion of rhlA mutant (transition concentration) [1]: ~40 µM; Concentration of activity reversal for swarming promotion of rhlA mutant (transition concentration) ([1]; listed as 5): 40 µM; Concentration at which tendrils were induced in PAO1 (wild type PAO1): 30 µM; Concentration of activity reversal for swarming inhibition of PAO1 (transition concentration) (wild type PAO1): ~20 to 30 µM |
| CCCCCCCCCCO[C@@H]1O[C@H](CO)[C@@H](O[C@H]2O[C@H](CO)[C@@H](O)[C@H](O)[C@H]2O)[C@H](O)[C@H]1O [DeβM, decyl β-matoside] | did not exhibit any significant activation of swarming | – | – | – | – |
| adamantane dodecyl β-maltoside [ADβM] | long, straight and well-defined tendrils | – | – | – | – |
